Patent US8349804B2, “Bone graft and scaffolding materials immobilized with type I collagen binding peptides” (Seoul National University Industry Foundation, priority 2006, dated 2013)

Key:
[1] = test system: Human-osteocarcoma cells (KCLB No. 21543); assay: Test of cell adhesion on peptide-immobilized bone graft material; type: cell-based; settings: phalloidin staining, confocal laser scanning microscope
Procedure: […] The bone graft materials with the cultured human-osteocarcoma cell were fixed with 2% glutaraldehyde solution. The fixed bone graft materials were treated with 1% triton X-100 and then added with a fluorescent-labeled phalloidin solution, thus staining the attached cytoplasm.

type I collagen = assay: Affinity of peptide to type I collagen by Biacore X; type: binding; settings: type I collagen bound to CM5 chip, peptide dissolved to be 4 μmol, ranking among SEQ ID NO: 1-3
Description: The synthesized peptide's affinity to type I collagen was examined using Biacore X (Biacore Co., Sweden). After the type I collagen was bound to CM5 chip, the amount of peptides binding with collagen was quantitated while flowing the prepared peptide dissolved to be 4 μmol into micro-channels of Biacore X (FIG. 1).

[2] = Test of calcification (calcein staining, confocal microscopy); type: cell-based, human; settings: cultured 14 days in medium for forming hard tissue; compared with group without peptides
Procedure: The bone graft materials prepared in Examples 2 was added to a medium for forming a hard tissue containing calcein (fluorescent marker of calcium), and human mesenchymally derived stem cells (C2Cl2: ATCC CRL-1772) were cultured for 14 days. The cultured osteoblasts werefixed with 2% glutaraldehyde solution and treated with 1% triton X-100 and then added with a fluorescent-labeled phalloidin solution, thus staining the fixed cytoplasm.

ERK = assay: Western blot of phosphorylated ERK (pERK); type: cell-based, human; settings: C2C12 cells treated with peptides for 30 min; compared with non-treated cells (NT)
Procedure: In order to examine the expression of differentiation marker protein in osteoblasts cultured on the surface of the bone graft material on which peptides added with cysteine at each N-terminal end of amino acid sequences of SEQ ID NOs: 1, 2 and 3, prepared in example 2 according to the present invention were immobilized, the peptides were exposed to human mesenchymally derived stem cells (C2C12) for 30 min, and collected to measure the amount of ERK protein, a marker proteins involved in intracellular signal transfer, by Western blot.
The human mesenchymally derived stem cells were transplanted to 60 mm of petridish, treated with peptides for 30 min. Whole intracellular protein was extracted and quantitated by Bradford method. 40[…] of protein was electrophoresed on acrylamide gel and transferred to nitrocellulose membrane, and ERK, intracellular signal transmission protein within cell was reacted with the antibody of phosphorylated ERK (pERK), followed by reacting with the second antibody labeled with a marker. The membrane was developed to observe the protein bands and measure densities thereof (FIG. 4).

type I collagen, sequence (P02452 162-1218 limits assumed): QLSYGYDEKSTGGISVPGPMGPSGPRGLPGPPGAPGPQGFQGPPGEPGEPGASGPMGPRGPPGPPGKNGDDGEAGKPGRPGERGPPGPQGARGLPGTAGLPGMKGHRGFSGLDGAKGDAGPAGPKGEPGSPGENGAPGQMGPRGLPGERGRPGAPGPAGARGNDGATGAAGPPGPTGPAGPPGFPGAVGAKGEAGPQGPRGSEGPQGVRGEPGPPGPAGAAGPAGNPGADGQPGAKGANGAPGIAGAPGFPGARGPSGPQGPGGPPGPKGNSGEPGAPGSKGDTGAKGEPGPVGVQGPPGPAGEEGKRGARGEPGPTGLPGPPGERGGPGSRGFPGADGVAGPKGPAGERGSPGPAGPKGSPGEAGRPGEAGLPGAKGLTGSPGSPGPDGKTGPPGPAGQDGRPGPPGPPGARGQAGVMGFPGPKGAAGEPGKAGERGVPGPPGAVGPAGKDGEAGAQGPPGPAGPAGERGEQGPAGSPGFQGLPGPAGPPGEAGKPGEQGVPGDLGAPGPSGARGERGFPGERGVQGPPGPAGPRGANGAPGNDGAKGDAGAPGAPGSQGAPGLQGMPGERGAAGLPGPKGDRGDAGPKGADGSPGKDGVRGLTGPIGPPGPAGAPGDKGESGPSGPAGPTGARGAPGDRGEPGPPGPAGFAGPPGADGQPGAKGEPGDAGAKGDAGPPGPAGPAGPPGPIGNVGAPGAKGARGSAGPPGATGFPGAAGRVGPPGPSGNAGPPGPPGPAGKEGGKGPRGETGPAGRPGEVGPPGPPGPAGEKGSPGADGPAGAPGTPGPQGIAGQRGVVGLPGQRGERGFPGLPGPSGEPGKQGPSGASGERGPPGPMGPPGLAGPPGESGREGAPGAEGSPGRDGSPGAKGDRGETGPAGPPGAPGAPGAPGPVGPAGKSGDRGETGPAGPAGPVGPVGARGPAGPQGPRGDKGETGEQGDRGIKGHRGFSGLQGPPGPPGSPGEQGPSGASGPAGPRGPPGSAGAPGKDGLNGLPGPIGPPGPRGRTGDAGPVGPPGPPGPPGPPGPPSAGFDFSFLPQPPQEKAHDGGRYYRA
type I collagen, sequence (P08123 80-1119 limits assumed, further chain): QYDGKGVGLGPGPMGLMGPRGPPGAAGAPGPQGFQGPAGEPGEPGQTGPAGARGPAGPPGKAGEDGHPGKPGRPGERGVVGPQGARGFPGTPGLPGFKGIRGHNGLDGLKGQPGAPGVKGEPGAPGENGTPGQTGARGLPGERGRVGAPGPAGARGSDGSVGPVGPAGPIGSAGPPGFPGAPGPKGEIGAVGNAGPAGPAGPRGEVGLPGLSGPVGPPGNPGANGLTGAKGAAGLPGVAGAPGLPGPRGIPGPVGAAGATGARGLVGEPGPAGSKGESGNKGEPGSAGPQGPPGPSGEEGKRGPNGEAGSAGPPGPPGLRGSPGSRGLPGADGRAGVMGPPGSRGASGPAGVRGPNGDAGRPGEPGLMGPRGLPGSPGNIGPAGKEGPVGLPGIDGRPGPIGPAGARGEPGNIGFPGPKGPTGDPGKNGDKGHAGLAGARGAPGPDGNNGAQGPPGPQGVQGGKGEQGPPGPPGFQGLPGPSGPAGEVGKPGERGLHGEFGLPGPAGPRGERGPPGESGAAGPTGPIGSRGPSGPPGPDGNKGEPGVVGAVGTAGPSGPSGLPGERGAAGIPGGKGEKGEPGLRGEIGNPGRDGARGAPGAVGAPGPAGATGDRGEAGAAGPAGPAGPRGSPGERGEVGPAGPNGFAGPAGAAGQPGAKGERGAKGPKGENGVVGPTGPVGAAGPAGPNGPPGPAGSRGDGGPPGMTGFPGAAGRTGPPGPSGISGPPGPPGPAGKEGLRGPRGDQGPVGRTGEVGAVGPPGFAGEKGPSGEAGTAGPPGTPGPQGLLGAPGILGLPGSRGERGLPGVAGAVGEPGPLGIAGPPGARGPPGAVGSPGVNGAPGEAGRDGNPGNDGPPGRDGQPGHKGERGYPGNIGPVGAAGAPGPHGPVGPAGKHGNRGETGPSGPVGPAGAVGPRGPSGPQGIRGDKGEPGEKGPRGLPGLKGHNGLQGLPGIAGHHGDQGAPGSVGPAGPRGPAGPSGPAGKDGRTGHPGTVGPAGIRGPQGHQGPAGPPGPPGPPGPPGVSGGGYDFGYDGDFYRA

Substance | cell adhesion pattern on coated surface [1] | affinity to type I collagen (amount of peptide binding with collagen) (type I collagen) | calcium adhesion (calcein fluorescence), calcification of cells [2] | expression of phosphorylated ERK (pERK) (ERK)
Bovine serum albumin [BSA, reference compound] | spherical and unstable adhesion aspect of the cells | – | – | –
KMFHVSNAQYPGA (listed as Oryctolagus cuniculus) [SEQ ID NO: 2] | stable adhesion of the cells | lowest affinity | much more fluorescence | significantly increased
YRLKRSKS (listed as Oryctolagus cuniculus) [SEQ ID NO: 1] | stable adhesion of the cells | – | much more fluorescence | significantly increased
YRLKRSKSKMFHVSNAQYPGA (listed as Oryctolagus cuniculus) [SEQ ID NO: 3] | stable adhesion of the cells | highest affinity | much more fluorescence | significantly increased
